# Measurements from patent US6716628B2, “Chondrogenesis promoters and indolin-2-one derivatives” (Chugai Seiyaku Kabushiki Kaisha, priority 1999, dated 2004).
# Key:
# [1] = test system: common mouse chondrocyte and adipocyte precursor cell line (CL-1); experiment: Uptake of 35S-labeled sulfuric acid into CL-1; assay type: cell-based; conditions: 10 μmol/L (A and F also 1 or 5 μmol/L), 48 h culture, uptake in final 24 h
# Description: The above-mentioned cell line CL-1 was cultured in a 96-well cell culturing plate (Wallac Corp.) for a liquid scintillation counter (Wallac Corp.) to a cell density of 1000 per well. The medium used was α-MEM (GIBCO Corp.) containing 100 U/mL of penicillin (Meiji Seika Co., Ltd.), 100 μg/mL of streptomycin (Banyu Pharmaceutical Corp.) and 10% fetal bovine serum (INTERGEN Corp.). When the CL-1 cells reached confluency, the medium was exchanged with one containing 10 μmol/L of compounds A, B, C, D, E, F and G, and after 24 hours, ^35S-labeled sulfuric acid was added at 0.5 μCi per well and culturing was continued. For compounds A and F, a medium was also prepared with a concentration of 1 or 5 μmol/L. After 24 hours, the medium was discarded and the cell layer was fixed for 2 hours at room temperature using 0.2 mL of 5% paraformaldehyde (0.1 mol/L phosphate buffer solution (pH 7.4, Wako Pure Chemical Industries) containing 0.4% cetylpyridinium chloride (Wako Pure Chemical Industries). After discarding the fixing solution, it was washed once with the same solution and the washed solution was discarded. After adding 0.1 mL of scintillator (Wallac Corp.) to the cell layer and stirring, the radioactivity was measured with a scintillation counter (Wallac Corp.).
# [2] = test system: rat primary culture articular chondrocytes; experiment: Uptake of 35S-labeled sulfuric acid into glycosaminoglycan (cartilage matrix synthesis); assay type: cell-based; conditions: 10 μmol/L of compound, vs ethanol 1% final concentration control solvent
# Excerpt: Articular chondrocytes were trimmed from the femoral knee joint of 6-week-old male SD rats (Nihon SLC Corp.) using a scalpel, and then digested in 0.3% collagenase (WORTHINGTON Corp.) and cultivated (Calcif. Tissue Int. 19:179-187,1975).
# The isolated articular chondrocytes were used to measure glycosaminoglycan synthesis in the cartilage matrix by measurement of the uptake of ^35S-labeled sulfuric acid (Amersham Co., Ltd.) into glycosaminoglycan. Specifically, the articular chondrocytes were cultured in a 96-well cell culturing plate (FALCON Corp.) to a cell density of 10,000 per well. […]
# When the chondrocytes reached confluency, the medium was exchanged with one having a serum concentration of 0.3% and culturing was carried out overnight, after which the medium was exchanged with the same type also containing 10 μmol/L of compound A, and then after 3 hours, ^35S-labeled sulfuric acid (Amersham Co., Ltd.) was added at 0.5 μCi per well and culturing was carried out for 24 hours. […] The sample was then filtered with glass fiber filter paper (Toyo Filter Paper Corp.), the filter paper was washed 3 times with 2 mL of 1% cetylpyridinium chloride (20 mmol/L), one each was placed in a liquid scintillation counting vial (PACKARD Corp.), 10 mL of scintillator (Nacalai Tesque Corp.) was poured in, and the radioactivity was measured with a liquid scintillation counter (PACKARD Corp.).
smiles,measurement,setting,value
"CCOC(CN1C(=O)[C@](CC(=O)Nc2ccc(C)cc2)(NC(=O)Nc2ccc(C)cc2)c2ccccc21)OCC [Compound A, (+)-1-(2,2-diethoxyethyl)-3-((4-methylphenyl)aminocarbonylmethyl)-3-(N′-(4-methylphenyl)ureido)indolin-2-one]",differentiation of CL-1 to chondrocytes (from 35S-labeled sulfuric acid uptake),[1],clearly promote
same,uptake of 35S-labeled sulfuric acid,[2],significantly increased
